Experimental findings from patent US20240130994A1, “IONIC LIQUID FORMULATIONS FOR TREATING DIABETES” (i2O Therapeutics, Inc., priority 2020, published 2024) are described below.

The data set is described as follows: Physical form of choline-based ionic liquids at room temperature. The class given is physicochemical. The protocol: Several ionic liquids comprising choline as a cation and various anions were synthesized. […] For anions not miscible with the aqueous choline bicarbonate solution, a co-solvent, such as ethanol, was added until a homogenous mixture formed. The mixture was stirred at room temperature until CO2 evolution ceased. Solvent was removed by rotary evaporation at 60° C. for 20 minutes, and each product was dried in a vacuum oven for 48 hours at 60° C.

[1] abbreviates: cation:anion 1:1, room temperature.
Setting [2] is: cation:anion 1:2, room temperature.
Where [3] appears, read: cation:anion 2:1, room temperature.

Regarding `CC(CCC(C(=O)O)C(C)CC(C)(C)C)CC(C)(C)C` (stereo not drawn) [2-(4,4-Dimethyl-2-pentanyl)-5,7,7-trimethyloctanoic Acid], the “Physical Form (Ratios Listed as Cation:Anion)” value under setting [1] is recorded as “Solid at 1:1”.

Take `CC(C)Cc1ccc(C(C)C(=O)O)cc1` (stereo not drawn) [2-(4-Isobutylphenyl)propionic Acid]: under setting [1], the “Physical Form (Ratios Listed as Cation:Anion)” value is on record as “Solid at 1:1”.

For the compound `CCCCCCCCC(CCCCCC)C(=O)O` (stereo not drawn) [2-Hexyldecanoic Acid], the “Physical Form (Ratios Listed as Cation:Anion)” value under setting [1] is recorded as “Liquid at 1:1”.

As for `O=C(O)CNC(=O)c1ccccc1O` [2-Hydroxyhippuric Acid], the “Physical Form (Ratios Listed as Cation:Anion)” value under setting [1] is “Solid at 1:1”.

For `CC(C)CCCC(C)CC(=O)O` (stereo not drawn) [3,7-Dimethyloctanoic Acid], the “Physical Form (Ratios Listed as Cation:Anion)” value by setting is: under setting [1], “Solid at 1:1, 1:2”; under setting [2], “Solid at 1:1, 1:2”.

`CCC(C)CCC(=O)O` (stereo not drawn) [4-Methylhexanoic Acid]: the “Physical Form (Ratios Listed as Cation:Anion)” value is reported as “Liquid at 1:1, 1:2” under setting [1] and “Liquid at 1:1, 1:2” under setting [2].

Take `CCCCC(C)CCC(=O)O` (stereo not drawn) [4-Methyloctanoic Acid]: the “Physical Form (Ratios Listed as Cation:Anion)” value reads like this: under setting [1], “Liquid”; under setting [2], “Solid”.

As for `CC(C)CCC(=O)O` [4-Methylvaleric Acid], under setting [2], the “Physical Form (Ratios Listed as Cation:Anion)” value was “Liquid at 1:2”.

With `O=C(O)C1CC2C=CC1C2` (stereo not drawn) [5-Norbornene-2-carboxylic Acid], the “Physical Form (Ratios Listed as Cation:Anion)” value under setting [1] is listed as “Solid at 1:1”.

In the case of `O=C(O)CCCC[C@@H]1CCSS1` [(R)-α-Lipoic Acid], the “Physical Form (Ratios Listed as Cation:Anion)” value is listed as “Solid at 2:1, 1:1, 1:2,” under setting [1]; “Solid at 2:1, 1:1, 1:2,” under setting [2]; “Solid at 2:1, 1:1, 1:2,” under setting [3].

For `CC(C)C1=CC2=CC[C@@H]3[C@](C)(CCC[C@@]3(C)C(=O)O)[C@H]2CC1` [Abietic Acid], under setting [1], the “Physical Form (Ratios Listed as Cation:Anion)” value is “Solid at 1:1”.

For `CC(=O)O` [Acetic Acid], the “Physical Form (Ratios Listed as Cation:Anion)” value under setting [1] is “Liquid at 2:1, 1:1, 1:2”; the “Physical Form (Ratios Listed as Cation:Anion)” value under setting [2] is given as “Liquid at 2:1, 1:1, 1:2”; the “Physical Form (Ratios Listed as Cation:Anion)” value under setting [3] is listed as “Liquid at 2:1, 1:1, 1:2”.

With `CCCCC/C=C\C/C=C\C/C=C\C/C=C\CCCC(=O)O` [Arachidonic Acid], the “Physical Form (Ratios Listed as Cation:Anion)” value under setting [1] is “Solid at 1:1”.

Turning to `O=C(O)/C=C/c1ccc(O)c(O)c1` [Caffeic Acid], the “Physical Form (Ratios Listed as Cation:Anion)” value under setting [1] was “Solid at 1:1”.

`O=C(O)CC(O)(CC(=O)O)C(=O)O` [Citric Acid]: the “Physical Form (Ratios Listed as Cation:Anion)” value is reported as “Solid” under setting [1]; “Liquid” under setting [3]; “Liquid” (cation:anion 3:1, room temperature); “Liquid” (cation:anion 4:1, room temperature).

`C/C=C/C(=O)O` [Crotonic Acid]: the “Physical Form (Ratios Listed as Cation:Anion)” value reads like this: under setting [1], “Liquid at 1:1, 1:2”; under setting [2], “Liquid at 1:1, 1:2”.

In the case of `O=C(O)[C@H](O)[C@@H](O)[C@@H](O)[C@H](O)CO` [D-(+)-Galactonic Acid], the “Physical Form (Ratios Listed as Cation:Anion)” value under setting [1] was “Solid at 1:1”.

Regarding `CCCCCCCCCC(=O)O` [Decanoic Acid], the “Physical Form (Ratios Listed as Cation:Anion)” value is, setting by setting: under setting [1], “Solid”; (cation:anion 1:1, room temperature, listed as decanoic acid) “solid”; under setting [2], “Solid”; (cation:anion 1:2, room temperature, listed as decanoic acid) “solid”; under setting [3], “Liquid”; (cation:anion 2:1, room temperature, listed as decanoic acid) “liquid”. Moreover, the “appearance and physical form” value (room temperature, ratio as in label) is on record as “waxy solid”.

With `CC/C=C\C/C=C\C/C=C\C/C=C\C/C=C\CCCC(=O)O` [Eicosapentanoic Acid (EPA)], the “Physical Form (Ratios Listed as Cation:Anion)” value under setting [1] is listed as “Solid at 1:1”.

`O=c1oc2c(O)c(O)cc3c(=O)oc4c(O)c(O)cc1c4c23` [Ellagic Acid]: the “Physical Form (Ratios Listed as Cation:Anion)” value under setting [1] is given as “Solid at 1:1”.

`O=C(O)/C=C/C(=O)O` [Fumaric Acid]: the “Physical Form (Ratios Listed as Cation:Anion)” value runs as follows: under setting [1], “Solid”; under setting [3], “Liquid”.

Consider `CC(C)=CCC/C(C)=C/C(=O)O` [Geranic Acid], for which the “Physical Form (Ratios Listed as Cation:Anion)” value runs as follows: under setting [1], “Liquid at 1:1, 1:2”; under setting [2], “Liquid at 1:1, 1:2”.

Regarding `O=C(O)CCCC(=O)O` [Glutaric Acid], the “Physical Form (Ratios Listed as Cation:Anion)” value is, setting by setting: under setting [1], “Liquid at 2:1, 1:1”; under setting [3], “Liquid at 2:1, 1:1”.

For `O=C(O)CO` [Glycolic Acid], the “Physical Form (Ratios Listed as Cation:Anion)” value runs as follows: under setting [1], “Liquid at 2:1, 1:1”; under setting [3], “Liquid at 2:1, 1:1”.

`CCCCCC(=O)O` [Hexanoic Acid]: the “Physical Form (Ratios Listed as Cation:Anion)” value under setting [1] is on record as “Liquid at 1:1, 1:2” and the “Physical Form (Ratios Listed as Cation:Anion)” value under setting [2] is given as “Liquid at 1:1, 1:2”.

In the case of `O=C1O[C@H]([C@@H](O)CO)C(O)=C1O` [L-Ascorbic Acid], under setting [1], the “Physical Form (Ratios Listed as Cation:Anion)” value is on record as “Solid at 1:1”.

Consider `N[C@@H](CCC(=O)N[C@@H](CS)C(=O)NCC(=O)O)C(=O)O` [L-Glutathione reduced], for which the “Physical Form (Ratios Listed as Cation:Anion)” value under setting [3] was “Solid at 2:1”.

For the compound `CC(O)C(=O)O` (stereo not drawn) [Lactic Acid], the “Physical Form (Ratios Listed as Cation:Anion)” value is “Liquid at 1:1, 1:2” under setting [1] and “Liquid at 1:1, 1:2” under setting [2].

For the compound `CCCCCCCCCCCC(=O)O` [Lauric Acid], the “Physical Form (Ratios Listed as Cation:Anion)” value by setting is: under setting [1], “Solid at 1:1, 1:2”; under setting [2], “Solid at 1:1, 1:2”.

In the case of `CC(=O)CCC(=O)O` [Levulinic Acid], the “Physical Form (Ratios Listed as Cation:Anion)” value is, setting by setting: under setting [1], “Liquid at 1:1, 1:2”; under setting [2], “Liquid at 1:1, 1:2”.

For the compound `O=C(O)/C=C\C(=O)O` [Maleic Acid], the “Physical Form (Ratios Listed as Cation:Anion)” value is, setting by setting: under setting [1], “Liquid at 2:1, 1:1”; under setting [3], “Liquid at 2:1, 1:1”.

In the case of `O=C(O)CC(O)C(=O)O` (stereo not drawn) [Malic Acid], the “Physical Form (Ratios Listed as Cation:Anion)” value runs as follows: under setting [1], “Liquid at 2:1, 1:1”; under setting [3], “Liquid at 2:1, 1:1”.

Consider `O=C(O)CC(=O)O` [Malonic Acid], for which the “Physical Form (Ratios Listed as Cation:Anion)” value under setting [1] is on record as “Liquid at 1:1”.

Consider `O=C(O)C(O)c1ccccc1` (stereo not drawn) [Mandelic Acid], for which the “Physical Form (Ratios Listed as Cation:Anion)” value is given as “Liquid at 1:1, 1:2” under setting [1] and “Liquid at 1:1, 1:2” under setting [2].

Take `C/C(=C\C(=O)O)C(=O)O` [Mesaconic Acid]: the “Physical Form (Ratios Listed as Cation:Anion)” value under setting [1] is “Solid” and the “Physical Form (Ratios Listed as Cation:Anion)” value under setting [3] was “Liquid”.

On to `CCCCCCCCC(=O)O` [Nonanoic Acid], for which the “Physical Form (Ratios Listed as Cation:Anion)” value under setting [1] was “Solid at 1:1, 1:2” and the “Physical Form (Ratios Listed as Cation:Anion)” value under setting [2] is “Solid at 1:1, 1:2”.

As to `CCCCCCCC/C=C\CCCCCCCC(=O)O` [Oleic Acid], the “Physical Form (Ratios Listed as Cation:Anion)” value is recorded as “Solid at 1:1, 1:2” under setting [1] and “Solid at 1:1, 1:2” under setting [2].

As for `C=C(C)[C@@H]1CC=C(C(=O)O)CC1` [Perillic Acid], under setting [1], the “Physical Form (Ratios Listed as Cation:Anion)” value is “Solid at 1:1”.

On to `O=P(O)(O)O` [Phosphoric Acid], for which the “Physical Form (Ratios Listed as Cation:Anion)” value under setting [1] is “Solid”, the “Physical Form (Ratios Listed as Cation:Anion)” value under setting [2] was “Liquid” and the “Physical Form (Ratios Listed as Cation:Anion)” value under setting [3] is “Liquid”.

With `O=C(O)CCCCCC(=O)O` [Pimelic Acid], the “Physical Form (Ratios Listed as Cation:Anion)” value reads like this: under setting [1], “Liquid at 2:1, 1:1”; under setting [3], “Liquid at 2:1, 1:1”.

`CCC(=O)O` [Propionic Acid]: the “Physical Form (Ratios Listed as Cation:Anion)” value by setting is: under setting [1], “Liquid at 2:1, 1:1”; under setting [3], “Liquid at 2:1, 1:1”.

Regarding `O=C1CC[C@@H](C(=O)O)N1` [Pyroglutamic Acid], the “Physical Form (Ratios Listed as Cation:Anion)” value under setting [1] is on record as “Solid” and the “Physical Form (Ratios Listed as Cation:Anion)” value under setting [2] was “Liquid”.

As for `CC(=O)C(=O)O` [Pyruvic Acid], the “Physical Form (Ratios Listed as Cation:Anion)” value is “Liquid at 1:1, 1:2” under setting [1] and “Liquid at 1:1, 1:2” under setting [2].

As to `CCCCCC[C@@H](O)C/C=C\CCCCCCCC(=O)O` [Ricinoleic Acid], the “Physical Form (Ratios Listed as Cation:Anion)” value is, setting by setting: under setting [1], “Liquid at 1:1, 1:2”; under setting [2], “Liquid at 1:1, 1:2”.

Consider `C/C=C/C=C/C(=O)O` [Sorbic Acid], for which the “Physical Form (Ratios Listed as Cation:Anion)” value is given as “Liquid at 1:1, 1:2” under setting [1] and “Liquid at 1:1, 1:2” under setting [2].

As to `O=C(O)CCC(=O)O` [Succinic Acid], the “Physical Form (Ratios Listed as Cation:Anion)” value is recorded as “Liquid at 2:1, 1:1, 1:2” under setting [1]; “Liquid at 2:1, 1:1, 1:2” under setting [2]; “Liquid at 2:1, 1:1, 1:2” under setting [3].

For `COc1cc(C(=O)O)cc(OC)c1O` [Syringic Acid], the “Physical Form (Ratios Listed as Cation:Anion)” value under setting [1] is reported as “Solid at 1:1”.

As to `CCCCCCC/C=C/C(=O)O` [Trans-2-Decenoic Acid], the “Physical Form (Ratios Listed as Cation:Anion)” value is recorded as “Solid at 1:1, 1:2” under setting [1] and “Solid at 1:1, 1:2” under setting [2].

Take `CCC/C=C/C(=O)O` [Trans-2-Hexenoic Acid]: the “Physical Form (Ratios Listed as Cation:Anion)” value by setting is: under setting [1], “Liquid at 1:1, 1:2”; under setting [2], “Liquid at 1:1, 1:2”.

For the compound `CCCCC/C=C/C(=O)O` [Trans-2-Octenoic Acid], the “Physical Form (Ratios Listed as Cation:Anion)” value under setting [1] is listed as “Liquid at 1:1, 1:2” and the “Physical Form (Ratios Listed as Cation:Anion)” value under setting [2] was “Liquid at 1:1, 1:2”.

With `CCCC/C=C/CC(=O)O` [Trans-3-Octenoic Acid], the “Physical Form (Ratios Listed as Cation:Anion)” value reads like this: under setting [1], “Liquid at 1:1, 1:2”; under setting [2], “Liquid at 1:1, 1:2”.

Take `C=CCCCCCC(=O)O` [Trans-7-Octenoic Acid]: the “Physical Form (Ratios Listed as Cation:Anion)” value under setting [1] was “Liquid at 1:1, 1:2” and the “Physical Form (Ratios Listed as Cation:Anion)” value under setting [2] is “Liquid at 1:1, 1:2”.

Consider `COc1cc(/C=C/C(=O)O)ccc1O` [Trans-Ferulic Acid], for which, under setting [1], the “Physical Form (Ratios Listed as Cation:Anion)” value is given as “Solid at 1:1”.
